Source: ChEMBL document CHEMBL4825755 (J Med Chem, 2021)
pIC50, pKi: −log10 of the molar value.

Key:
[1] = biological target: PI3-kinase p110-delta/p85-alpha (Homo sapiens, UniProt O00329); test: Inhibition of recombinant human N-terminal His6-tagged full length P110delta/full length untagged human p85alpha expressed in baculovirus infected Sf21 insect cells using PIP2 as substrate preincubated for 15 mins followed by substrate addition and measured after 60 mins by HTRF assay
[2] = biological target: PI3-kinase p110-alpha/p85-alpha (Homo sapiens, UniProt P42336); test: Inhibition of recombinant human N-terminal His6-tagged full length P110alpha/full length untagged human p85alpha expressed in baculovirus infected Sf21 insect cells using PIP2 as substrate preincubated for 15 mins followed by substrate addition and measured after 60 mins by HTRF assay
Sequence of PI3-kinase p110-alpha/p85-alpha (P27986 whole entry): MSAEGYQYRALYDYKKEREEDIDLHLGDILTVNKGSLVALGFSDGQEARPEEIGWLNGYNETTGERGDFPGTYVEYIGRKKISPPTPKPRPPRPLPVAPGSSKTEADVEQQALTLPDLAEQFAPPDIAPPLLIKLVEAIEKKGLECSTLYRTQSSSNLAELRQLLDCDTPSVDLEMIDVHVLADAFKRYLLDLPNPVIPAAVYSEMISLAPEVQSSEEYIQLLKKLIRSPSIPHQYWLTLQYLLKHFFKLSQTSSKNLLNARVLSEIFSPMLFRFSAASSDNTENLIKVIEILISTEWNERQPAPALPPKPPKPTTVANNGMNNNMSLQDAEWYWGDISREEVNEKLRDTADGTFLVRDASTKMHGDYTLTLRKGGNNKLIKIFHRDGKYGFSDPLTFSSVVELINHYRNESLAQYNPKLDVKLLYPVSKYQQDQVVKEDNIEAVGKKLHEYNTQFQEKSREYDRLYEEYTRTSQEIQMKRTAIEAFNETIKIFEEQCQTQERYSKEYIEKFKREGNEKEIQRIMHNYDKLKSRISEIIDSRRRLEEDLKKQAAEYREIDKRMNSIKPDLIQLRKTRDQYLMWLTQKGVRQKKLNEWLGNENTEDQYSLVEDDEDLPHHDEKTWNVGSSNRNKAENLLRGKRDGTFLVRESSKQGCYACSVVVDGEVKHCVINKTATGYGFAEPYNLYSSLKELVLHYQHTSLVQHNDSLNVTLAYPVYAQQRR
Sequence of PI3-kinase p110-alpha/p85-alpha (P42336 whole entry): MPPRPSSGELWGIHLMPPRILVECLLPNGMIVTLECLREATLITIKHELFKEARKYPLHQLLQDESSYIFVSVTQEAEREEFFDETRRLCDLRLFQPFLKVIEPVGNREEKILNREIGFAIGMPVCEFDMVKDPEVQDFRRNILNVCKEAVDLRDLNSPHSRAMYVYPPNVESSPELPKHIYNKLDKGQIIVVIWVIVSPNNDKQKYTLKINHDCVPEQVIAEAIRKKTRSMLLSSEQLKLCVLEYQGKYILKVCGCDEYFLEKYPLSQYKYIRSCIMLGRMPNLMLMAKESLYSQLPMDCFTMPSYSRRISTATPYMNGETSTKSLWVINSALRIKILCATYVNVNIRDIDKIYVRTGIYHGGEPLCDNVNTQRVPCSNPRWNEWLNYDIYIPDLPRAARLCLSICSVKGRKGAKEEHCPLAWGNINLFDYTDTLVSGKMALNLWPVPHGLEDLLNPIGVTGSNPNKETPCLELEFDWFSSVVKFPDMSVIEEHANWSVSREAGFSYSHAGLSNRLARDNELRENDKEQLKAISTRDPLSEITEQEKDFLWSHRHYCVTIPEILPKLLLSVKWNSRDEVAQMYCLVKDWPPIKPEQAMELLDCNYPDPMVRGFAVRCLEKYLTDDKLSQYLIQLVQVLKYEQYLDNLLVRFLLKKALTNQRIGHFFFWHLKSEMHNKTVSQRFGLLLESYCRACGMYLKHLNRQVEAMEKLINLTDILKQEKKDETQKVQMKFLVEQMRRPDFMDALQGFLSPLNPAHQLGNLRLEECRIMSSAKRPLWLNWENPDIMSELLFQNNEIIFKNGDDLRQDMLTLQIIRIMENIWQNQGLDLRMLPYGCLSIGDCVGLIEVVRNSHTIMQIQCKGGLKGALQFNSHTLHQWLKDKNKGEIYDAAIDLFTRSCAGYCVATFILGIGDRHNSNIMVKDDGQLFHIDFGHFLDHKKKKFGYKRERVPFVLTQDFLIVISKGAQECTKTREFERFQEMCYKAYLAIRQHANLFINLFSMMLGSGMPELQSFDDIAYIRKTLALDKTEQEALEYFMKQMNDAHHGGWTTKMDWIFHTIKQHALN

PI3K p110 beta/p85 alpha = PI3K p110 beta/p85 alpha (Homo sapiens, UniProt P42338); test: Inhibition of recombinant human N-terminal His6-tagged full length P110beta/full length untagged human p85alpha expressed in baculovirus infected Sf21 insect cells using PIP2 as substrate preincubated for 15 mins followed by substrate addition and measured after 60 mins by HTRF assay
Sequence of PI3K p110 beta/p85 alpha (P27986 whole entry, canonical isoform): as the sequence (P27986 whole entry) above
Sequence of PI3K p110 beta/p85 alpha (P42338 whole entry, canonical isoform): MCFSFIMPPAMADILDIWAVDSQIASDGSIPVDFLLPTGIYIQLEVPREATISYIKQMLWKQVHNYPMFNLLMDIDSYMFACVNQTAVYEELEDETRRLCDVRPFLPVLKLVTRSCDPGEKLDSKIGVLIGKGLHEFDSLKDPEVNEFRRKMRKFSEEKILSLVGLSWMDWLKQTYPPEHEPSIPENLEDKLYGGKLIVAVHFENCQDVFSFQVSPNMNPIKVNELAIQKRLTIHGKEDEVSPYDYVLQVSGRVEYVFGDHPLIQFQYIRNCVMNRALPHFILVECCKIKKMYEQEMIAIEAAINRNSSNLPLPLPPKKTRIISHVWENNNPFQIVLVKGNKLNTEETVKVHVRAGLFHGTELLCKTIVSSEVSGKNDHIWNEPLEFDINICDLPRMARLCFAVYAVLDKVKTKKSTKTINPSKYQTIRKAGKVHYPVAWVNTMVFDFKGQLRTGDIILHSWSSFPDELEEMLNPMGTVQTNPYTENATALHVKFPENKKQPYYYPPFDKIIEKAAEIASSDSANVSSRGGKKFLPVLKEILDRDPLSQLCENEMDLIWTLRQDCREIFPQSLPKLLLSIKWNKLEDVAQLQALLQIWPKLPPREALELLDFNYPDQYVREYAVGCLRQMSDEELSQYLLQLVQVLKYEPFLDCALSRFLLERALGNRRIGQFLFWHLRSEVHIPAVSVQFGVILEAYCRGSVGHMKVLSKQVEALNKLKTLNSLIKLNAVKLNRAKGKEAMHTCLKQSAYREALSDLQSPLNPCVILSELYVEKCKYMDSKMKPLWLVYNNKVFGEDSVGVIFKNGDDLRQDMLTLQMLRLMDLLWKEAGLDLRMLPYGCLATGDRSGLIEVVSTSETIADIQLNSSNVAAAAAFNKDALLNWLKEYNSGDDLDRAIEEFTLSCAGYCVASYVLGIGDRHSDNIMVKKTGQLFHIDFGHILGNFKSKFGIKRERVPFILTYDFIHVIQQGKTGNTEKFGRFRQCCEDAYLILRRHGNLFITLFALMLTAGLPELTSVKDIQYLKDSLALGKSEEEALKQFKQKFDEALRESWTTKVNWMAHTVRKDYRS

[3] = biological target: Phosphatidylinositol 4,5-bisphosphate 3-kinase catalytic subunit gamma isoform (Homo sapiens, UniProt P48736); test: Inhibition of recombinant human N-terminal His6-tagged full length P120gamma expressed in baculovirus infected Sf21 insect cells using PIP2 as substrate preincubated for 15 mins followed by substrate addition and measured after 60 mins by HTRF assay
Sequence of Phosphatidylinositol 4,5-bisphosphate 3-kinase catalytic subunit gamma isoform (P48736 whole entry, canonical isoform): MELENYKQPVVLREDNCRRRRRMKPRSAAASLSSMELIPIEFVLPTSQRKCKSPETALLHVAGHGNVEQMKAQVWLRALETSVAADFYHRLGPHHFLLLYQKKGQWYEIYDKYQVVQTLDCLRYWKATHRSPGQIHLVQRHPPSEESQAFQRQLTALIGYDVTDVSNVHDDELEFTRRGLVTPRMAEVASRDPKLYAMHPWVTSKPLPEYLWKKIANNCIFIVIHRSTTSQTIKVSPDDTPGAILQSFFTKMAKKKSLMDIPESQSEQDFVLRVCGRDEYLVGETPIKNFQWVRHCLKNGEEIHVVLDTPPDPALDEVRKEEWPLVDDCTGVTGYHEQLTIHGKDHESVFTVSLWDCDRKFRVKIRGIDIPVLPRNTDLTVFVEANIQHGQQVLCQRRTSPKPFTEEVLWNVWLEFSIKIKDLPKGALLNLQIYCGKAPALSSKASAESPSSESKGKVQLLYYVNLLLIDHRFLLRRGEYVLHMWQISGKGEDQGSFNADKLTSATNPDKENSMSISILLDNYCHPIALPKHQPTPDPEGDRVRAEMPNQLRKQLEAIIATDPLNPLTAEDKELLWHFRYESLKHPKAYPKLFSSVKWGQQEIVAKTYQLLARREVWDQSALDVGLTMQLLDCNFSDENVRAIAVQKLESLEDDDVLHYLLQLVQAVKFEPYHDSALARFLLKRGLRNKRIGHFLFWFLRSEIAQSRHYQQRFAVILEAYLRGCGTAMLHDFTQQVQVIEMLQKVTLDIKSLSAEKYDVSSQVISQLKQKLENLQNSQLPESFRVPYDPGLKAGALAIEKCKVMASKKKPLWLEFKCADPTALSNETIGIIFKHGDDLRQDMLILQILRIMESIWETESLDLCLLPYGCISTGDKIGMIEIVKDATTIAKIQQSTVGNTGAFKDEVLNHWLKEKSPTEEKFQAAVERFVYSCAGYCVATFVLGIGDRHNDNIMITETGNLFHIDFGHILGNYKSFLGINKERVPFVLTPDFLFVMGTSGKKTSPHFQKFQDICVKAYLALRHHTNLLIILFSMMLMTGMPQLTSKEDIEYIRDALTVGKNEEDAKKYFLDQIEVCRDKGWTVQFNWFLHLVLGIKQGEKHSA

[4] = biological target: T1, Phosphatidylinositol 4,5-bisphosphate 3-kinase catalytic subunit delta isoform (Homo sapiens, UniProt O00329); test: Inhibition of PI3Kdelta in human whole blood assessed as reduction in cytostim-stimulated IFNgamma production preincubated for 1 hr followed by cytostim stimulation and measured after 20 hrs by electrochemiluminescence assay
T1 sequence (O00329 whole entry): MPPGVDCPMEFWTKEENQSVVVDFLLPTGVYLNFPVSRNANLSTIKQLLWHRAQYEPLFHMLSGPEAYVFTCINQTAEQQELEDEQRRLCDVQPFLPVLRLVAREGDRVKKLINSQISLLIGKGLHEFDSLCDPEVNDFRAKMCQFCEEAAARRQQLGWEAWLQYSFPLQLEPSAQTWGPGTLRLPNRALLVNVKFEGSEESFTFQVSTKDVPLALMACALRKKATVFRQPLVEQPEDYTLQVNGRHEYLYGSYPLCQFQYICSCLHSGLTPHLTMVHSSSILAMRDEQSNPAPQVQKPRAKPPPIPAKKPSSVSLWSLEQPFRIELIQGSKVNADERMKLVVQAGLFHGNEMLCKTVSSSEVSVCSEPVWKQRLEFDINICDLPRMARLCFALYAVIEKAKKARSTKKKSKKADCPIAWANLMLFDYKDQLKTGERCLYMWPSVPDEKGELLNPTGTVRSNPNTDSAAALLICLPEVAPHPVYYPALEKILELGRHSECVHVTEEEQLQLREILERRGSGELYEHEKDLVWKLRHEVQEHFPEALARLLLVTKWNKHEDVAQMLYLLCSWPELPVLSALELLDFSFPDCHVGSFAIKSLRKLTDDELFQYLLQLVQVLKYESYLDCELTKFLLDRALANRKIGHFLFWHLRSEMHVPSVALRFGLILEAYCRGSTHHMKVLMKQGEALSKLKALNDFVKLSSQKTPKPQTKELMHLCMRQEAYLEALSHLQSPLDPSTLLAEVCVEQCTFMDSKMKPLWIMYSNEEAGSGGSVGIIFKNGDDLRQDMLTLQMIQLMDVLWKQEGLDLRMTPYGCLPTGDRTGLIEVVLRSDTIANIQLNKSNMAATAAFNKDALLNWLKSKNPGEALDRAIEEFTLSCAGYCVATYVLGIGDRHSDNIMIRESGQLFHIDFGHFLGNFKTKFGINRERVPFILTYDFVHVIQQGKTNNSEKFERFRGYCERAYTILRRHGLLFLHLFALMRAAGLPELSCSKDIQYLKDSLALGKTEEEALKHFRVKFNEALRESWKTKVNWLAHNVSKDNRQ

serum albumin = serum albumin (Homo sapiens, UniProt P02768); test: Binding affinity to human serum albumin by HPLC analysis; type: ADME, cell-free; conditions: read-out: PB (converted)
Sequence of serum albumin (P02768 whole entry): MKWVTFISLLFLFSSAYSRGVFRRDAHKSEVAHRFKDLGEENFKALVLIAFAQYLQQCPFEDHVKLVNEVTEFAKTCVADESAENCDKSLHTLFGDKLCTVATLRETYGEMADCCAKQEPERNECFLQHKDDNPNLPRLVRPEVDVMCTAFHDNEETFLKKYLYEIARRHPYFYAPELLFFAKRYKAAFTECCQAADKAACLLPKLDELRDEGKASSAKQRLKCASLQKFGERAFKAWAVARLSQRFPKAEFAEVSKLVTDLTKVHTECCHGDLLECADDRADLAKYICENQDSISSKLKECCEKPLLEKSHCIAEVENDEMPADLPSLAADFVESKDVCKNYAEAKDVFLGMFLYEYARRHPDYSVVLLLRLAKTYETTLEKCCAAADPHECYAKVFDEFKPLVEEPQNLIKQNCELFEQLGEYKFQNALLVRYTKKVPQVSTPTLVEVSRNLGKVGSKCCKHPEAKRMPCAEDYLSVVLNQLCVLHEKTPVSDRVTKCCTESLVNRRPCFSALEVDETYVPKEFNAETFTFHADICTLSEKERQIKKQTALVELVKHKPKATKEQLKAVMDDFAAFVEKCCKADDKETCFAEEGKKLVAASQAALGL

Homo sapiens = organism: Homo sapiens; test: Selectivity ratio of IC50 for inhibition of recombinant human N-terminal His6-tagged full length P110delta/full length untagged human p85alpha expressed in baculovirus infected Sf21 insect cells to IC50 for inhibition of PI3Kdelta in human whole blood
[5] = Lipophilicity, log D of compound by chromatographic method; type: physicochemical
[6] = Intrinsic clearance in Wistar Han rat liver microsomes at 0.5 uM measured up to 45 mins in presence of NADPH by LC-MS/MS analysis; type: ADME, Microsome; conditions: read-out: CLH
[7] = Clearance in Wistar Han rat at 1 mg/kg, iv administered as infusion for 1 hr by RP LC-MS/MS analysis; type: ADME, organism-based; conditions: in vivo
[8] = Volume of distribution at steady state in Wistar Han rat at 1 mg/kg, iv administered as infusion for 1 hr by RP LC-MS/MS analysis; type: ADME, organism-based; conditions: in vivo, read-out: Vdss
[9] = Half life in Wistar Han rat at 1 mg/kg, iv administered as infusion for 1 hr by RP LC-MS/MS analysis; type: ADME, organism-based; conditions: in vivo
in vitro = conditions: human, pooled liver microsomes
Description: Intrinsic clearance in pooled human liver microsomes at 0.5 uM measured up to 45 mins in presence of NADPH by LC-MS/MS analysis

Sequence of PI3-kinase p110-delta/p85-alpha (P27986 whole entry, one chain of several): as the sequence (P27986 whole entry) above

SMILES: COc1ncc(C2=CCOCC2)cc1S(=O)(=O)Nc1ccnc(C)c1
- pIC50 [1]: 7.50
- pIC50 [2]: 5.40
- pIC50 (PI3K p110 beta/p85 alpha): 6.50
- pIC50 [3]: 5.40
- pIC50 [4]: 6.50
- fraction unbound (serum albumin): 0.21
- Ratio IC50 (Homo sapiens): 10

SMILES: COc1ncc(N2CCOCC2)cc1S(=O)(=O)Nc1cncc(-c2ccc(CN3CCCC3)cc2F)c1
- pIC50 [1]: 8.50
- pIC50 [2]: 6.00
- pIC50 (PI3K p110 beta/p85 alpha): 5.80
- pIC50 [3]: 5.60
- pIC50 [4]: 7.70
- chromatographic logD [5]: 2.4
- CLint scaled at 0.5 µM [6]: < 0.46 mL/min/kg
- clearance [7]: 8.8 mL/min/kg
- Vd [8]: 0.6 L/kg
- half-life [9]: 31.8 min
- CLint scaled at 0.75 h, 0.5 µM (in vitro): < 0.4 mL/min/kg

SMILES: COc1ncc(N2CCOCC2)cc1S(=O)(=O)Nc1cncc(-c2ccc(CN3CCCC3)c(F)c2)c1
- pIC50 [1]: 7.90
- pIC50 [2]: 5.40
- pIC50 (PI3K p110 beta/p85 alpha): 5.60
- pIC50 [3]: 5.00
- pIC50 [4]: 7.20
- chromatographic logD [5]: 2.2
- CLint scaled at 0.5 µM [6]: < 0.46 mL/min/kg
- CLint scaled at 0.75 h, 0.5 µM (in vitro): < 0.4 mL/min/kg

SMILES: COc1ncc(C2=CCOCC2)cc1S(=O)(=O)Nc1cncc(C)c1
- pIC50 [1]: 7.70
- pIC50 [2]: 5.50
- pIC50 (PI3K p110 beta/p85 alpha): 6.40
- pIC50 [3]: 5.30
- pIC50 [4]: 5.40
- fraction unbound (serum albumin): 0.09
- Ratio IC50 (Homo sapiens): 100

SMILES: COc1ncc(C2=CCOCC2)cc1S(=O)(=O)Nc1cncc(-c2ccc(CN3CCNCC3)cc2)c1
- pIC50 [1]: 8.50
- pKi [1]: 9.90
- pIC50 [2]: 5.50
- pIC50 (PI3K p110 beta/p85 alpha): 6.10
- pIC50 [3]: 5.10
- pIC50 [4]: 7.90
- chromatographic logD [5]: 3.3
- CLint scaled at 0.5 µM [6]: 3.18 mL/min/kg
- CLint scaled at 0.75 h, 0.5 µM (in vitro): 2.21 mL/min/kg

SMILES: COc1ncc(C2=CCOCC2)cc1S(=O)(=O)Nc1cncc(-c2ccc(CN3CCN(C(C)C)CC3)nc2)c1
- pIC50 [1]: 8.90
- pKi [1]: 10.60
- pIC50 [2]: 5.90
- pIC50 (PI3K p110 beta/p85 alpha): 5.40
- pIC50 [3]: 5.30
- pIC50 [4]: 7.50
- chromatographic logD [5]: 1.8
- CLint scaled at 0.5 µM [6]: < 0.46 mL/min/kg
- CLint scaled at 0.75 h, 0.5 µM (in vitro): 0.43 mL/min/kg

SMILES: COc1ncc(N2CCOCC2)cc1S(=O)(=O)Nc1ccnc(-c2ccc(CN3C[C@@H](C)O[C@@H](C)C3)cc2F)c1
- pIC50 [1]: 9.00
- pKi [1]: 10.50
- pIC50 [2]: 5.90
- pIC50 (PI3K p110 beta/p85 alpha): 5.80
- pIC50 [3]: 6.60
- pIC50 [4]: 8.10
- chromatographic logD [5]: 3.9
- CLint scaled at 0.5 µM [6]: 0.59 mL/min/kg
- CLint scaled at 0.75 h, 0.5 µM (in vitro): 0.87 mL/min/kg

SMILES: COc1ncc(N2CCOCC2)cc1S(=O)(=O)Nc1ccnc(-c2ccc(CN3CCC(C(C)(C)O)CC3)cc2F)c1
- pIC50 [1]: 8.80
- pKi [1]: 10.30
- pIC50 [2]: 5.60
- pIC50 (PI3K p110 beta/p85 alpha): 5.60
- pIC50 [3]: 5.50
- pIC50 [4]: 8.00
- chromatographic logD [5]: 2.1
- CLint scaled at 0.5 µM [6]: < 0.46 mL/min/kg
- CLint scaled at 0.75 h, 0.5 µM (in vitro): < 0.4 mL/min/kg

SMILES: COc1ncc(N2CCOCC2)cc1S(=O)(=O)Nc1ccnc(-c2ccc(CN3CCN(C(C)C)CC3)c(F)c2)c1
- pIC50 [1]: 8.80
- pKi [1]: 10.30
- pIC50 [2]: 5.80
- pIC50 (PI3K p110 beta/p85 alpha): 5.10
- pIC50 [3]: 5.40
- pIC50 [4]: 8.50
- chromatographic logD [5]: 1.8
- CLint scaled at 0.5 µM [6]: < 0.46 mL/min/kg
- CLint scaled at 0.75 h, 0.5 µM (in vitro): < 0.4 mL/min/kg

SMILES: COc1ncc(C2=CCOCC2)cc1S(=O)(=O)Nc1cncc(-c2cccc(CN3CCCC3)c2)c1
- pIC50 [1]: 8.20
- pIC50 [2]: 5.30
- pIC50 (PI3K p110 beta/p85 alpha): 6.10
- pIC50 [3]: 5.40
- pIC50 [4]: 6.70
- chromatographic logD [5]: 2.4
- CLint scaled at 0.5 µM [6]: 1.1 mL/min/kg
- CLint scaled at 0.75 h, 0.5 µM (in vitro): 0.71 mL/min/kg

SMILES: COc1ncc(C2=CCOCC2)cc1S(=O)(=O)Nc1cncc(-c2ccc(CN3C[C@@H](C)N(C)[C@@H](C)C3)cc2)c1
- pIC50 [1]: 9.30
- pKi [1]: 10.80
- pIC50 [2]: 6.50
- pIC50 (PI3K p110 beta/p85 alpha): 5.60
- pIC50 [3]: 5.30
- pIC50 [4]: 8.90
- chromatographic logD [5]: 3.1
- CLint scaled at 0.5 µM [6]: 0.87 mL/min/kg
- CLint scaled at 0.75 h, 0.5 µM (in vitro): 3.04 mL/min/kg

SMILES: COc1ncc(C2=CCOCC2)cc1S(=O)(=O)Nc1cncc(-c2ccc(CN(C)C)cc2)c1
- pIC50 [1]: 8.10
- pIC50 [2]: 5.30
- pIC50 (PI3K p110 beta/p85 alpha): 6.00
- pIC50 [3]: 5.00
- pIC50 [4]: 7.10
- chromatographic logD [5]: 2
- CLint scaled at 0.5 µM [6]: 0.66 mL/min/kg
- CLint scaled at 0.75 h, 0.5 µM (in vitro): < 0.4 mL/min/kg

SMILES: COc1ncc(C2=CCOCC2)cc1S(=O)(=O)Nc1cncc(-c2cccc(CN3CCCCC3)c2)c1
- pIC50 [1]: 8.30
- pIC50 [2]: 5.30
- pIC50 (PI3K p110 beta/p85 alpha): 5.90
- pIC50 [3]: 5.20
- pIC50 [4]: 7.10
- chromatographic logD [5]: 3.5
- CLint scaled at 0.5 µM [6]: 3.98 mL/min/kg
- CLint scaled at 0.75 h, 0.5 µM (in vitro): 1.88 mL/min/kg

SMILES: COc1ncc(C2=CCOCC2)cc1S(=O)(=O)Nc1cncc(-c2ccc(CN3C[C@@H](C)O[C@@H](C)C3)cc2)c1
- pIC50 [1]: 9.40
- pKi [1]: 11.00
- pIC50 [2]: 6.00
- pIC50 (PI3K p110 beta/p85 alpha): 6.20
- pIC50 [3]: 6.10
- pIC50 [4]: 7.60
- chromatographic logD [5]: 5.3
- CLint scaled at 0.5 µM [6]: 18.9 mL/min/kg
- CLint scaled at 0.75 h, 0.5 µM (in vitro): 12.9 mL/min/kg
